Consider 30 molecules from US20170369492A1 (Takeda Pharmaceutical Company Limited, priority 2014, published 2017).

This assay has as its target T1, human GPR43 (Homo sapiens, UniProt O15552).
T1 construct: expressed in transfected cells
T1 sequence (O15552 1-330): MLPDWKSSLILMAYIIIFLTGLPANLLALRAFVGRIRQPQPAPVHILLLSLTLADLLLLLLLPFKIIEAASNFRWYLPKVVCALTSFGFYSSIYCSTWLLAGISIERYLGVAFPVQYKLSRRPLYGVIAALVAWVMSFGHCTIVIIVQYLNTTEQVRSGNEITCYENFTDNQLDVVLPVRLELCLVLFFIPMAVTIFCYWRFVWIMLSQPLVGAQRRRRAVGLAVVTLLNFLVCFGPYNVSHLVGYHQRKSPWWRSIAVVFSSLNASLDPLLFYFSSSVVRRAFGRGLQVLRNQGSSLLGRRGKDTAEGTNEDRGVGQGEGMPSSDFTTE
Description: Ca-Flux Functional Assay: Determination of Agonist/Positive Allosteric Modulator (PAM) Activity. Type of assay: cell-based. The settings on record: CHO-K1 Gα16 cells stably expressing human GPR43; compound added in the presence of EC20 sodium acetate; intracellular Ca2+ by FLIPR; agonist/PAM activity not distinguished. How it is done:
Ca-Flux Functional Assay: Determination of Agonist/Positive Allosteric Modulator (PAM) Activity
GPR43 agonist/PAM activity was determined by measuring changes in intracellular calcium levels using a Ca^2+ sensitive fluorescent dye. The changes in fluorescent signal were monitored by FLIPR (manufactured by Molecular Devices). GPR43 mediated increases in intracellular Ca^2+ concentration were readily detected upon activation with sodium acetate. Prior to the assay (24 hours), CHO-K1 Gα16 cells stably expressing human GPR43 were-seeded in cell culture medium in black, clear-bottom 384-well plates (Corning Inc) and grown overnight at 37° C., 5% CO2. On the day of the assay, cell culture media was removed and cells were loaded with Calcium 5 Dye (Molecular Devices) diluted in HBSS containing 25 mM HEPES, 2.5 mM Probenecid, 0.1% BSA for 1 hour at 37° C., 5% CO2. 10 point half log concentration response curves of sodium acetate from 10 mM were conducted prior to the testing of compounds to calculate the sodium acetate concentration that produces 20% of the maximal response (EC20). Test compounds (at to point half log concentration response curves from 10 μM) were added in the presence of sodium acetate to achieve a final concentration that produces approximately 20% maximal response as calculated from the previous experiment. The changes in fluorescent signal were monitored by FLIPR upon addition of the compound/EC20 sodium acetate mix. The EC50 values were determined from ten point concentration response curves. Curves were generated using the average of two wells for each data point.
The above assay detects both GPR43 receptor agonists and positive allosteric modulators of the GPR43 receptor, without distinguishing between the two. Activity in either regard is useful in the treatment of conditions associated with GPR43 receptor activity.

The EC50 is the concentration at which the effect is half-maximal. For `Nc1c(S(=O)(=O)c2ccccc2)c2ncnc(OCc3ccccc3)c2n1C1CCC(F)(F)CC1` [Example 30, 7-(benzenesulfonyl)-4-(benzyloxy)-5-(4,4-difluorocyclohexyl)-5H-pyrrolo[3,2-d]pyrimidin-6-amine], the EC50 came out at 199 nM.
As for `Nc1c(S(=O)(=O)c2ccccc2)c2ncnc(O)c2n1C1CCC(F)(F)CC1` [Example 31, 6-amino-5-(4,4-difluorocyclohexyl)-7-(phenylsulfonyl)-5H-pyrrolo[3,2-d]pyrimidin-4-ol], the EC50 came to 6940 nM.
Consider `Nc1c(S(=O)(=O)c2ccccc2)c2ncnc(Cl)c2n1C1CCC(F)(F)CC1` [Example 32, 7-(benzenesulfonyl)-4-chloro-5-(4,4-difluorocyclohexyl)-5H-pyrrolo[3,2-d]pyrimidin-6-amine], for which the EC50 was found to be 689 nM.
For the molecule `CNc1ncnc2c(S(=O)(=O)c3ccccc3)c(N)n(C3CCC(F)(F)CC3)c12` [Example 33, 7-(benzenesulfonyl)-5-(4,4-difluorocyclohexyl)-4-N-methyl-5H-pyrrolo[3,2-d]pyrimidine-4,6-diamine], the EC50 is 2720 nM.
With `CN(C)c1ncnc2c(S(=O)(=O)c3ccccc3)c(N)n(C3CCCCC3)c12` [Example 34, 7-(benzenesulfonyl)-5-cyclohexyl-4-N,4-N-dimethyl-5H-pyrrolo[3,2-d]pyrimidine-4,6-diamine] the figure was 5980 nM; with `COc1ncnc2c(S(=O)(=O)c3ccccc3)c(N)n(C3CCCC3)c12` [Example 35, 7-(benzenesulfonyl)-5-cyclopentyl-4-methoxy-5H-pyrrolo[3,2-d]pyrimidin-6-amine], 1860 nM; with `COc1nccc2c(S(=O)(=O)c3ccccc3)c(N)n(C3CCCCC3)c12` [Example 36, 3-(benzenesulfonyl)-1-cyclohexyl-7-methoxy-1-pyrrolo[2,3-c]pyridin-2-amine], 245 nM.
In the case of `N#Cc1ncnc2c(S(=O)(=O)c3ccccc3)c(N)n(C3CCCCC3)c12` [Example 37, 6-amino-7-(benzenesulfonyl)-5-cyclohexyl-5H-pyrrolo[3,2-d]pyrimidine-4-carbonitrile], the EC50 was 468 nM.
`COc1nc(C)nc2c(S(=O)(=O)c3ccccc3F)c(N)n(C3CCCCC3)c12` [Example 38, 5-cyclohexyl-7-(2-fluorobenzenesulfonyl)-4-methoxy-2-methyl-5H-pyrrolo[3,2-d]pyrimidin-6-amine]: the EC50 worked out at 169 nM.
On to `COc1nc(C)nc2c(S(=O)(=O)c3cccc(F)c3)c(N)n(C3CCCCC3)c12` [Example 39, 5-cyclohexyl-7-(3-fluorobenzenesulfonyl)-4-methoxy-2-methyl-5H-pyrrolo[3,2-d]pyrimidin-6-amine], for which the 50% effective concentration (EC50) turned out to be 657 nM.
With `COc1ncnc2c(S(=O)(=O)c3ccccc3)c(N)n(C3CCOCC3)c12` [Example 40, 7-(benzenesulfonyl)-4-methoxy-5-(oxan-4-yl)-5H-pyrrolo[3,2-d]pyrimidin-6-amine] the figure was 7380 nM; with `Nc1c(S(=O)(=O)Nc2ccccc2)c2nccnc2n1C1CCCCC1` [Example 41, 6-amino-5-cyclohexyl-N-phenyl-5H-pyrrolo[2,3-b]pyrazine-7-sulfonamide], 585 nM.
In the case of `Nc1c(S(=O)(=O)Nc2cccnc2)c2nccnc2n1C1CCCCC1` [Example 42, 6-amino-5-cyclohexyl-N-(pyridin-3-yl)-5H-pyrrolo[2,3-b]pyrazine-7-sulfonamide], the 50% effective concentration (EC50) is 2300 nM.
With `Nc1c(S(=O)(=O)c2ccccc2)c2nccnc2n1C1CCC1` [Example 43, 5-cyclobutyl-7-(phenylsulfonyl)-5H-pyrrolo[2,3-b]pyrazin-6-amine] the figure was 6990 nM; with `CCCCn1c(N)c(S(=O)(=O)c2ccccc2)c2nccnc21` [Example 45, 5-butyl-7-5(phenylsulfonyl)-5H-pyrrolo[2,3-b]pyrazin-6-amine], 2890 nM; with `Nc1c(S(=O)(=O)c2ccccc2)c2nccnc2n1CCc1ccccc1` [Example 46, 5-phenethyl-7-(phenylsulfonyl)-5H-pyrrolo[2,3-b]pyrazin-6-amine], 5260 nM.
With `Nc1c(S(=O)(=O)c2ccccc2)c2nccnc2n1C1CCCCC1O` (stereo not drawn) [Example 47, 2-(6-amino-7-(phenylsulfonyl)-5H-pyrrolo[2,3-b]pyrazin-5-yl)cyclohexanol] the figure was 6490 nM; with `Nc1c(S(=O)(=O)c2ccccc2)c2nccnc2n1CCC1CC1` [Example 48, 5-(2-cyclopropylethyl)-7-(phenylsulfonyl)-5H-pyrrolo[2,3-b]pyrazin-6-amine], 3260 nM; with `Nc1c(S(=O)(=O)c2ccccc2)c2nccnc2n1C1CCC(F)(F)CC1` [Example 49, 5-(4,4-difluoro-cyclohexyl)-7-(phenylsulfonyl)-5H-pyrrolo[2,3-b]pyrazin-6-amine], 211 nM.
Take `Nc1c(S(=O)(=O)c2ccccc2)c2nccnc2n1CCC1CCC1` [Example 50, 5-(2-cyclobutylethyl)-7-(phenylsulfonyl)-5H-pyrrolo[2,3-b]pyrazin-6-amine]: the EC50 was 760 nM.
With `Nc1c(S(=O)(=O)c2ccccc2)c2nccnc2n1C1CCCOC1` (stereo not drawn) [Example 51, 7-(phenylsulfonyl)-5-(tetrahydro-2H-pyran-3-yl)-5H-pyrrolo[2,3-b]pyrazin-6-amine] the figure was 6000 nM; with `CC(C)(C)CCn1c(N)c(S(=O)(=O)c2ccccc2)c2nccnc21` [Example 52, 5-(3,3-dimethylbutyl)-7-(phenylsulfonyl)-5H-pyrrolo[2,3-b]pyrazin-6-amine], 822 nM.
Take `Nc1c(S(=O)(=O)c2ccccc2)c2nccnc2n1CC1CCCC1` [Example 54, 5-(cyclopentylmethyl)-7-(phenylsulfonyl)-5H-pyrrolo[2,3-b]pyrazin-6-amine]: the EC50 was 1540 nM.
With `CCC1(Cn2c(N)c(S(=O)(=O)c3ccccc3)c3nccnc32)CC1` [Example 55, 5-((1-ethylcyclopropyl)-methyl)-7-(phenylsulfonyl)-5H-pyrrolo[2,3-b]pyrazin-6-amine] the figure was 7170 nM; with `CC1(C)CC1Cn1c(N)c(S(=O)(=O)c2ccccc2)c2nccnc21` (stereo not drawn) [Example 56, 5-((2,2-dimethylcyclopropyl)methyl)-7-(phenylsulfonyl)-5H-pyrrolo[2,3-b]pyrazin-6-amine], 1300 nM; with `Nc1c(S(=O)(=O)N2CCCCC2)c2nccnc2n1C1CCCCC1` [Example 57, 5-cyclohexyl-7-(piperidin-1-ylsulfonyl)-5H-pyrrolo[2,3-b]pyrazin-6-amine], 259 nM.
Take `Nc1c(S(=O)(=O)N2CCCC2)c2nccnc2n1C1CCCCC1` [Example 58, 5-cyclohexyl-7-(pyrrolidin-1-ylsulfonyl)-5H-pyrrolo[2,3-b]pyrazin-6-amine]: the EC50 was 2240 nM.
With `CCCNS(=O)(=O)c1c(N)n(C2CCCCC2)c2nccnc12` [Example 59, 6-amino-5-cyclohexyl-N-propyl-5H-pyrrolo[2,3-b]pyrazine-7-sulfonamide], the EC50 turned out to be 792 nM.
With `CCCN(C)S(=O)(=O)c1c(N)n(C2CCCCC2)c2nccnc12` [Example 60, 6-amino-5-cyclohexyl-N-methyl-N-propyl-5H-pyrrolo[2,3-b]pyrazine-7-sulfonamide] the figure was 1410 nM; with `Nc1c(S(=O)(=O)N2CCOCC2)c2nccnc2n1C1CCCCC1` [Example 61, 5-cyclohexyl-7-(morpholinosulfonyl)-5H-pyrrolo[2,3-b]pyrazin-6-amine], 4320 nM.
